Source: ChEMBL document CHEMBL1134869, “Discovery of potent, selective human granzyme B inhibitors that inhibit CTL mediated apoptosis” (Bioorg Med Chem Lett, 2002)
Residues, ends and D or L forms follow the SMILES beside them.

Key:
[1] = molecular target: T1, Granzyme B (Homo sapiens, UniProt P10144); experiment: Inhibition against human granzyme B
[2] = Inhibition of CTL mediated apoptosis using humanNK-92 natural killer cells acting on target K-562 cells whose DNA had previously been labeled with [125I]-iododeoxyuridine; type: cell-based, Homo sapiens; conditions: k562
[3] = molecular target: T1, Granzyme B; experiment: Compound was tested for its inhibition against human granzyme B; Not active
[4] = molecular target: T2, Caspase-3 (Homo sapiens) (UniProt P42574); experiment: Compound was tested for its inhibition against Caspase-3 at 50 uM; Not active
T2 sequence (whole entry): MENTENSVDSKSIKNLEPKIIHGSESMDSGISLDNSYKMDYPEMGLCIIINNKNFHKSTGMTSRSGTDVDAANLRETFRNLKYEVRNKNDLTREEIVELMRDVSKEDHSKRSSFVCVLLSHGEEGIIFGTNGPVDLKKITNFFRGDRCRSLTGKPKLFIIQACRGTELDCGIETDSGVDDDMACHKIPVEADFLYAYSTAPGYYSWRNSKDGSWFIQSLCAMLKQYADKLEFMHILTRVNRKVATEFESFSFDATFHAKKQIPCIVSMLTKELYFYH

T1 sequence (P10144 whole entry): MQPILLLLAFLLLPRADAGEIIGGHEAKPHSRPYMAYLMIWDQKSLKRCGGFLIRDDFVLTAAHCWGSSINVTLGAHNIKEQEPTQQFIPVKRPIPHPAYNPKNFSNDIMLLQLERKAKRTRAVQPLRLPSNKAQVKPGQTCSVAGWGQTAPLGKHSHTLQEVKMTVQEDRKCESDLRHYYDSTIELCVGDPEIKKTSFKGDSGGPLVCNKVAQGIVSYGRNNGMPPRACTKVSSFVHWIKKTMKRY

Ki [1] [nM] | Structure (SMILES) | other results
360 | CC[C@H](C)[C@@H](C(=O)N[C@H]1CCc2cccc3c2N(C1=O)[C@H](C(=O)NCc1cc(=O)[nH]o1)C3)N(C)C(C)=O | –
85 | CC[C@H](C)[C@@H](C(=O)N[C@H]1CCc2cccc3c2N(C1=O)[C@H](C(=O)N[C@@H](CC(=O)O)C(=O)c1nc2ccccc2s1)C3)N(C)C(C)=O | –
38 | CC[C@H](C)[C@@H](C(=O)N[C@H]1CCc2cccc3c2N(C1=O)[C@H](C(=O)NCc1cn[nH]n1)C3)N(C)C(C)=O | Ki [2]: 30 nM
580 | CC[C@H](C)[C@@H](C(=O)N[C@H]1CCc2cccc3c2N(C1=O)[C@H](C(=O)NCCC(=O)O)C3)N(C)C(C)=O | inhibition [4]: < 50%
16 | CC[C@H](C)[C@@H](C(=O)N[C@H]1CCc2cccc3c2N(C1=O)[C@H](C(=O)N[C@@H](CC(=O)O)C(=O)C(=O)OC)C3)N(C)C(C)=O | –
74 | CC[C@H](C)[C@@H](C(=O)N[C@H]1CCc2cccc3c2N(C1=O)[C@H](C(=O)NCc1nnn[nH]1)C3)N(C)C(C)=O | –

The remaining lines, values behind:

Structure (SMILES) | Ki [1] [nM] | other results
CC(C)[C@@H](C(=O)N[C@H]1CCc2cccc3c2N(C1=O)[C@H](C(=O)NCc1cn[nH]n1)C3)c1ccccn1 | 75 | Ki [2]: 30 nM
CC[C@H](C)[C@@H](C(=O)N[C@H]1CCc2cccc3c2N(C1=O)[C@H](C(=O)NCc1cn[nH]c1)C3)N(C)C(C)=O | – | Ki [3]: Not Active
CC[C@H](C)[C@H](NC(C)=O)C(=O)NCC(=O)N1c2ccccc2C[C@H]1C(=O)N[C@H](C=O)CC(=O)O | 13 | –
CC[C@H](C)[C@H](NC(=O)Cc1ccccc1)C(=O)N[C@H]1CCc2cccc3c2N(C1=O)[C@H](C(=O)NCc1cn[nH]c1)C3 | 13 | Ki [2]: 6.3 nM
CC[C@H](C)[C@H](NC(C)=O)C(=O)N[C@@H](CCC(=O)O)C(=O)N1CCC[C@H]1C(=O)N[C@H](C=O)CC(=O)O (Ac-IEPD-aldehyde) | 80 | –
CC[C@H](C)[C@@H](C(=O)N[C@H]1CCc2cccc3c2N(C1=O)[C@H](C(=O)NCc1nc[nH]n1)C3)N(C)C(C)=O | – | Ki [3]: Not Active
CC[C@H](C)[C@H](NC(=O)Cc1csc2ccccc12)C(=O)N[C@H]1CCc2cccc3c2N(C1=O)[C@H](C(=O)NCc1cn[nH]c1)C3 | 7 | Ki [2]: 3.1 nM
CC[C@H](C)[C@H](NC(C)=O)C(=O)NCC(=O)N1CCC[C@H]1C(=O)N[C@H](C=O)CC(=O)O (Ac-IGPD-aldehyde) | 270 | –
CC[C@H](C)[C@H](NC(C)=O)C(=O)Nc1cccn(CC(=O)N[C@H](C=O)CC(=O)O)c1=O | 133 | –
CC[C@H](C)[C@@H](C(=O)N[C@H]1CCc2cccc3c2N(C1=O)[C@H](C(=O)NCc1cc[nH]n1)C3)N(C)C(C)=O | – | Ki [3]: Not Active
CC[C@H](C)[C@@H](C(=O)N[C@H]1CCc2cccc3c2N(C1=O)[C@H](C(=O)N[C@@H](CC(=O)O)C(=O)c1nnc(-c2ccccc2)o1)C3)N(C)C(C)=O | 7 | –
CC[C@H](C)[C@H](NC(C)=O)C(=O)N[C@H]1CC[C@H]2CC[C@@H](C(=O)N[C@H](C=O)CC(=O)O)N2C1=O | 122 | –
CC[C@H](C)[C@@H](C(=O)N[C@H]1CCc2cccc3c2N(C1=O)[C@H](C(=O)N[C@@H](CC(=O)O)C(=O)CSCc1ccc(F)cc1)C3)N(C)C(C)=O | 2300 | –
